Assay [1] addresses T1, HpIMPDH (Helicobacter pylori, UniProt P56088).
T1 construct: His tag; made in house; host or cells: E. coli Rosetta(DE3) pLysS, pET-28a(+)
The format is biochemical. As to conditions: 100 nM enzyme. From the text:
Before carrying out enzymatic assays, it is important to determine the enzyme activity.
The initial velocity data was fitted using Michaelis–Menten equation (1) with the help of GraphPad Prism to calculate enzyme kinetic parameters.1 V=Vmax[S]/KM+[S] where, V is velocity, Vmax is maximum velocity, [S] is substrate concentration, KM is Michaelis–Menten constant.

In assay [2] the target is T1, HpIMPDH. Set-up: method as in ref 3 (a number printed in a supplementary file, which may have a reference list of its own: not looked up in the article's list). To be noted: previously reported HpIMPDH data ref 3; cited from earlier work.
Another assay concerns HsIMPDH-I. Set-up: method as in ref 4 (a number printed in a supplementary file, which may have a reference list of its own: not looked up in the article's list). As to conditions: HsIMPDH-I ref 4; cited from earlier work.
A further assay concerns HsIMPDH-II. Set-up: method as in ref 4 (a number printed in a supplementary file, which may have a reference list of its own: not looked up in the article's list). To be noted: HsIMPDH-II ref 4; cited from earlier work.
The next assay concerns AgIMPDH. Details: method as in ref 5 (a number printed in a supplementary file, which may have a reference list of its own: not looked up in the article's list). To be noted: AgIMPDH ref 5; cited from earlier work.
The next assay has as its system CpIMPDH. Set-up: method as in ref 8 (a number printed in a supplementary file, which may have a reference list of its own: not looked up in the article's list). To be noted: CpIMPDH ref 8; cited from earlier work.
A further assay deals with SpIMPDH. Set-up: method as in ref 9 (a number printed in a supplementary file, which may have a reference list of its own: not looked up in the article's list). To be noted: SpIMPDH ref 9; cited from earlier work.
The test system of a further assay is BbIMPDH. Details: method as in ref 10 (a number printed in a supplementary file, which may have a reference list of its own: not looked up in the article's list). To be noted: BbIMPDH ref 10; cited from earlier work.
Another assay deals with TfIMPDH. To be noted: TfIMPDH ref 6; cited from earlier work.
In the next assay the test system is PaIMPDH. As to conditions: PaIMPDH ref 7; cited from earlier work.
Assay [3] concerns the target T1, HpIMPDH. Put plainly: HpIMPDH enzyme inhibition assay (NADH fluorescence). The format is biochemical. The protocol:
To calculate the IC50 values, the initial velocity of the reaction is plotted against concentrations of the small molecule inhibitor, and the data is fitted with the Hill equation.
Similar to enzyme kinetic studies, these were also determined by monitoring NADH concentration through the fluorescence measurement. In the presence of IMPDH inhibitor, decreased catalytic activity of the enzyme reduces the formation of NADH. […] The production of NADH was monitored by measuring fluorescence at 440 nm when excited at 340 nm using PerkinElmer EnVision Multilabel Reader (Perkin Elmer, Inc., MA, USA) at 37 °C. In these assays C91 was used as a positive control.
IC50 values for all compounds were calculated with the help of software GraphPad Prism. The equation applied was:2 Y=Bottom+(Top−Bottom)/1+10^((LogIC50−X)∗HillSlope)

The target of assay [4] is T1, HpIMPDH. In words: Mechanism of HpIMPDH inhibition, kinetic studies with varying IMP or NAD+ (Lineweaver-Burk). It counts as biochemical. To be noted: for Conclusion: type of inhibition versus IMP / Conclusion: type of inhibition versus NAD+: Table S4. The source says: There are three important mechanisms of enzyme inhibition, viz. competitive, non-competitive and uncompetitive inhibition. […] The initial velocity data were plotted using Lineweaver-Burk equation using GraphPad Prism.
The data is plotted using the Lineweaver-Burk equation.

Where [5] appears, read: IC50, HpIMPDH inhibition, 100 nM HpIMPDH, NAD+ 300 µM, IMP 250 µM.

Like-named read-outs stand apart in the source and are kept apart here.

T1 sequence (P56088 whole entry): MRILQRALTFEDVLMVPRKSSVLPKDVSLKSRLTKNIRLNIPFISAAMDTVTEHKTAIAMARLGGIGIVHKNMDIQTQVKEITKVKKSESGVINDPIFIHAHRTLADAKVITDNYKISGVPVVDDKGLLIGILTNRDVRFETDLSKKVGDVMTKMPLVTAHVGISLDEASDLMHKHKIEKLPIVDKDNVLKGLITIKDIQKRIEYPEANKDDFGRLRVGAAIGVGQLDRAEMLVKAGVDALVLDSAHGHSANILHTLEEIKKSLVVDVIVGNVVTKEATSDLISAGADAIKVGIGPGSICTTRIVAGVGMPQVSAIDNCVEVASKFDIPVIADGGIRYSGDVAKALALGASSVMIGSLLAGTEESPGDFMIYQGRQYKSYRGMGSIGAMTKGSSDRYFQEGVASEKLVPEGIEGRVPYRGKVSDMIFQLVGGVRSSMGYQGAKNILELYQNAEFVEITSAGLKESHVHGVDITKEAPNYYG

On to `NC(=O)c1ccc[n+]([C@@H]2O[C@H](COP(=O)([O-])OP(=O)(O)OC[C@H]3O[C@@H](n4cnc5c(N)ncnc54)[C@H](O)[C@@H]3O)[C@@H](O)[C@H]2O)c1` [NAD^+], for which the “kcat of HpIMPDH for the substrate” value on HpIMPDH [1] is on record as 5.96 ± 0.53 S^−1. Besides, the Km on HpIMPDH [1] (varying NAD+, IMP 500 µM constant) is 76.4 ± 1.09 µM; at HpIMPDH [2], 73 ± 6 µM; with HsIMPDH-I it was 32 ± 3.4 µM; with HsIMPDH-II it was 46 ± 2.8 µM; in the assay with AgIMPDH, 280 ± 24.7 µM; in the assay on CpIMPDH it was 150 ± 20 µM. For the same compound, the Km is 1180 ± 400 µM in the assay with SpIMPDH, 1100 ± 160 µM in the assay on BbIMPDH, 150 ± 30 µM in the assay on TfIMPDH and 1760 ± 109 µM in the assay on PaIMPDH.
Take `O=C(Cn1cc(C(=O)Nc2cccnc2)c2ccccc21)Nc1ccc(Br)cc1` [Compound 2]: on HpIMPDH [3] (HpIMPDH), the “IC50 value (in words)” value is given as “micromolar range”. On HpIMPDH [3] (setting [5]), this compound yielded a 50% inhibitory concentration (IC50) of 1890 ± 420 nM. The compound also had a 50% inhibitory concentration (IC50) on HpIMPDH [3] (IC50, inhibition profile of indole based compounds, Table S3) of 1880 nM. Further, on HpIMPDH [4], the “Mechanism of HpIMPDH inhibition against both IMP and NAD+” value is “noncompetitive inhibition”; the “Conclusion: type of inhibition versus IMP” value is “Non-competitive inhibition”; the “Conclusion: type of inhibition versus NAD+” value is “Non-competitive inhibition”.
On to `O=C(Cn1c(-c2ccccn2)nc2ccccc21)Nc1ccc2ccccc2c1` [Compound 1, reference compound], for which the concentration for half-maximal inhibition (IC50) against HpIMPDH [3] (setting [5]) amounted to 155 ± 82 nM. Moreover, on HpIMPDH [4], the “Mechanism of HpIMPDH inhibition against both IMP and NAD+” value is “uncompetitive”; the “Conclusion: type of inhibition versus IMP” value is recorded as “Un-competitive inhibition”; the “Conclusion: type of inhibition versus NAD+” value was “Un-competitive inhibition”.

As a reminder, the Km is the substrate concentration at which the rate is half of its maximum. Broadly, the IC50 is the point on the concentration scale where inhibition reaches its midpoint. Low values mean higher potency, high ones lower potency.

The values are drawn from PMC6336804, “Identification of selective inhibitors of Helicobacter pylori IMPDH as a targeted therapy for the infection” (Scientific Reports, 2019).
